Results taken from patent publication US20040176349A1, “Antibacterial composition” (priority 2001, published 2004).

Experiments:
E. faecalis 5659 (vanA) = test: Checkerboard microdilution MIC with PFOB, Table 2; type: cell-based
From the text: (§1) The aim of the study was to detect any synergy between PFOB and the other antibiotics. For the purposes of the study, synergy was defined in accordance with the FIC (fractional inhibitory concentration) index, as disclosed by Lorian (1991, In “Antibiotics in Laboratory Medicine” 3rd edition, Eds. Williams & Wilkins; esp. p 434-443). In essence, if the combination of test compounds gives at least a 4-fold reduction in the FIC value for each compound, then a synergy may be considered to exist (i.e. FIC of the combination <0.5=synergy; FIC 0.5-2.0=“indifference”; and FIC >2=antagonism).
(§2) In Table 2, results in the checkerboard indicating synergy are hatched, and specific optimum synergistic combinations are boxed.

E. faecalis ATCC 29212 = test: Checkerboard microdilution MIC with PFOB, Table 2; type: cell-based
From the text: as §1, §2

E.faecalis 78097 (van B) = test: Checkerboard microdilution MIC with PFOB, Table 2; type: cell-based
From the text: as §1, §2

E. faecalis ATCC 10541 = test: Checkerboard microdilution MIC with PFOB, Table 2; type: cell-based
From the text: The aim of the study was to detect any synergy between PFOB and the other antibiotics. For the purposes of the study, synergy was defined in accordance with the FIC (fractional inhibitory concentration) index, as disclosed by Lorian (1991, In “Antibiotics in Laboratory Medicine” 3rd edition, Eds. Williams & Wilkins; esp. p 434-443).

enterococci = test: Checkerboard study, synergy summary of Example 2; type: cell-based, Enterococcus; conditions: in words
From the text: as §1

[1] = Enterococcus faecalis, read-out: MIC (alone) of Partner

Compound: CN[C@H](CC(C)C)C(=O)N[C@H]1C(=O)N[C@@H](CC(N)=O)C(=O)N[C@H]2C(=O)N[C@H]3C(=O)N[C@H](C(=O)N[C@H](C(=O)O)c4cc(O)cc(O)c4-c4cc3ccc4O)[C@H](O)c3ccc(c(Cl)c3)Oc3cc2cc(c3O[C@@H]2O[C@H](CO)[C@@H](O)[C@H](O)[C@H]2O[C@H]2C[C@](C)(N)[C@H](O)[C@H](C)O2)Oc2ccc(cc2Cl)[C@H]1O [Vancomycin, vancomycin]
- MIC of partner antibiotic in the presence of PFOB at 0.5 mg/L (E. faecalis 5659 (vanA); E. faecalis 5659 (vanA), PFOB 0.5 mg/L): >64 µg/mL
- MIC of partner antibiotic in the presence of PFOB at 1 mg/L (E. faecalis 5659 (vanA); E. faecalis 5659 (vanA), PFOB 1 mg/L): >64 µg/mL
- MIC of partner antibiotic in the presence of PFOB at 2 mg/L (E. faecalis 5659 (vanA); E. faecalis 5659 (vanA), PFOB 2 mg/L): >64 µg/mL
- MIC of partner antibiotic in the presence of PFOB at 4 mg/L (E. faecalis 5659 (vanA); E. faecalis 5659 (vanA), PFOB 4 mg/L): >64 µg/mL
- MIC of partner antibiotic in the presence of PFOB at 8 mg/L (E. faecalis 5659 (vanA); E. faecalis 5659 (vanA), PFOB 8 mg/L): >64 µg/mL
- MIC of partner antibiotic in the presence of PFOB at 16 mg/L (E. faecalis 5659 (vanA); E. faecalis 5659 (vanA), PFOB 16 mg/L): >64 µg/mL
- MIC of partner antibiotic in the presence of PFOB at 32 mg/L (E. faecalis 5659 (vanA); E. faecalis 5659 (vanA), PFOB 32 mg/L): >64 µg/mL
- MIC (E. faecalis 5659 (vanA); [1]): > 64 µg/mL
- Synergy FIC (E. faecalis ATCC 29212; E. faecalis ATCC 29212, FIC index of PFOB + labelled partner, <0.5 = synergy): 0.31
- MIC of partner antibiotic in the presence of PFOB at 0.5 mg/L (E. faecalis ATCC 29212; E. faecalis ATCC 29212, PFOB 0.5 mg/L): 4 µg/mL
- MIC of partner antibiotic in the presence of PFOB at 1 mg/L (E. faecalis ATCC 29212; E. faecalis ATCC 29212, PFOB 1 mg/L): 2 µg/mL
- MIC of partner antibiotic in the presence of PFOB at 2 mg/L (E. faecalis ATCC 29212; E. faecalis ATCC 29212, PFOB 2 mg/L): 2 µg/mL
- MIC of partner antibiotic in the presence of PFOB at 4 mg/L (E. faecalis ATCC 29212; E. faecalis ATCC 29212, PFOB 4 mg/L): 2 µg/mL
- MIC of partner antibiotic in the presence of PFOB at 8 mg/L (E. faecalis ATCC 29212; E. faecalis ATCC 29212, PFOB 8 mg/L): 2 µg/mL
- MIC of partner antibiotic in the presence of PFOB at 16 mg/L (E. faecalis ATCC 29212; E. faecalis ATCC 29212, PFOB 16 mg/L): 1 µg/mL
- MIC of partner antibiotic in the presence of PFOB at 32 mg/L (E. faecalis ATCC 29212; E. faecalis ATCC 29212, PFOB 32 mg/L): 1 µg/mL
- MIC of PFOB & Partner: Partner concentration (E. faecalis ATCC 29212; E. faecalis ATCC 29212, optimum synergistic combination with PFOB, second figure (partner)): 1 µg/mL
- MIC (E. faecalis ATCC 29212; Enterococcus faecalis, ATCC29212, read-out: MIC (alone) of Partner): 4 µg/mL
- Synergy FIC (E.faecalis 78097 (van B); E.faecalis 78097 (van B), FIC index of PFOB + labelled partner, <0.5 = synergy): 0.375
- MIC of partner antibiotic in the presence of PFOB at 0.5 mg/L (E.faecalis 78097 (van B); E.faecalis 78097 (van B), PFOB 0.5 mg/L): 64 µg/mL
- MIC of partner antibiotic in the presence of PFOB at 1 mg/L (E.faecalis 78097 (van B); E.faecalis 78097 (van B), PFOB 1 mg/L): 64 µg/mL
- MIC of partner antibiotic in the presence of PFOB at 2 mg/L (E.faecalis 78097 (van B); E.faecalis 78097 (van B), PFOB 2 mg/L): 64 µg/mL
- MIC of partner antibiotic in the presence of PFOB at 4 mg/L (E.faecalis 78097 (van B); E.faecalis 78097 (van B), PFOB 4 mg/L): 64 µg/mL
- MIC of partner antibiotic in the presence of PFOB at 8 mg/L (E.faecalis 78097 (van B); E.faecalis 78097 (van B), PFOB 8 mg/L): 64 µg/mL
- MIC of partner antibiotic in the presence of PFOB at 16 mg/L (E.faecalis 78097 (van B); E.faecalis 78097 (van B), PFOB 16 mg/L): 32 µg/mL
- MIC of partner antibiotic in the presence of PFOB at 32 mg/L (E.faecalis 78097 (van B); E.faecalis 78097 (van B), PFOB 32 mg/L): 16 µg/mL
- MIC of PFOB & Partner: Partner concentration (E.faecalis 78097 (van B); E.faecalis 78097 (van B), optimum synergistic combination with PFOB, second figure (partner)): 32 µg/mL
- MIC (E.faecalis 78097 (van B); [1]): > 64 µg/mL
- MIC of partner antibiotic in the presence of PFOB at 0.5 mg/L (E. faecalis ATCC 10541; E. faecalis ATCC 10541, PFOB 0.5 mg/L): 2 µg/mL
- MIC of partner antibiotic in the presence of PFOB at 1 mg/L (E. faecalis ATCC 10541; E. faecalis ATCC 10541, PFOB 1 mg/L): 2 µg/mL
- MIC of partner antibiotic in the presence of PFOB at 2 mg/L (E. faecalis ATCC 10541; E. faecalis ATCC 10541, PFOB 2 mg/L): 2 µg/mL
- MIC of partner antibiotic in the presence of PFOB at 4 mg/L (E. faecalis ATCC 10541; E. faecalis ATCC 10541, PFOB 4 mg/L): 2 µg/mL
- MIC of partner antibiotic in the presence of PFOB at 8 mg/L (E. faecalis ATCC 10541; E. faecalis ATCC 10541, PFOB 8 mg/L): 2 µg/mL
- MIC of partner antibiotic in the presence of PFOB at 16 mg/L (E. faecalis ATCC 10541; E. faecalis ATCC 10541, PFOB 16 mg/L): 1 µg/mL
- MIC of partner antibiotic in the presence of PFOB at 32 mg/L (E. faecalis ATCC 10541; E. faecalis ATCC 10541, PFOB 32 mg/L): 1 µg/mL
- MIC (E. faecalis ATCC 10541; Enterococcus faecalis, ATCC10541, read-out: MIC (alone) of Partner): 4 µg/mL
- synergy with PFOB (enterococci): less marked, but still significant, synergy
